Experimental data as given in patent US11814367B2, “Inhibitors of glycogen synthase 1 (GYS1) and methods of use thereof” (Maze Therapeutics, Inc., priority 2021, dated 2023).

How the values were obtained:
[1] = target: hGYS1 enzyme (recombinant hGYS1/GN1 protein) (Homo sapiens (Human), UniProt P13807); test: GYS1 coupled enzyme assay (PK/LDH); format: biochemical; conditions: hGYS1/GN1 50 nM, UDP-Glucose 0.8 mM, G6P 1 mM; geometric mean of at least 2 runs
[2] = target: hGYS2 enzyme (recombinant hGYS2/GN1 protein) (Homo sapiens (Human), UniProt P54840); test: GYS2 coupled enzyme assay (PK/LDH); format: biochemical; conditions: geometric mean of at least 2 assay runs on separate days, read-out: Avg_IC50
Procedure, shortened: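 Recombinant hGYS2/GN1 (200 nM) with 2 mM UDP-glucose, 0.2% rabbit liver glycogen, 2 mM glucose-6-phosphate; UDP coupled via PK/LDH (2 mM PEP, 0.6 mM NADH). Buffer 50 mM Tris pH 7.5, 2 mM MgCl2, 100 mM KCl, 2.5% DMSO. A340 slope over 10 min; IC50 from Hill fit of duplicates.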

Sequence of hGYS2 enzyme (recombinant hGYS2/GN1 protein) (P54840 whole entry): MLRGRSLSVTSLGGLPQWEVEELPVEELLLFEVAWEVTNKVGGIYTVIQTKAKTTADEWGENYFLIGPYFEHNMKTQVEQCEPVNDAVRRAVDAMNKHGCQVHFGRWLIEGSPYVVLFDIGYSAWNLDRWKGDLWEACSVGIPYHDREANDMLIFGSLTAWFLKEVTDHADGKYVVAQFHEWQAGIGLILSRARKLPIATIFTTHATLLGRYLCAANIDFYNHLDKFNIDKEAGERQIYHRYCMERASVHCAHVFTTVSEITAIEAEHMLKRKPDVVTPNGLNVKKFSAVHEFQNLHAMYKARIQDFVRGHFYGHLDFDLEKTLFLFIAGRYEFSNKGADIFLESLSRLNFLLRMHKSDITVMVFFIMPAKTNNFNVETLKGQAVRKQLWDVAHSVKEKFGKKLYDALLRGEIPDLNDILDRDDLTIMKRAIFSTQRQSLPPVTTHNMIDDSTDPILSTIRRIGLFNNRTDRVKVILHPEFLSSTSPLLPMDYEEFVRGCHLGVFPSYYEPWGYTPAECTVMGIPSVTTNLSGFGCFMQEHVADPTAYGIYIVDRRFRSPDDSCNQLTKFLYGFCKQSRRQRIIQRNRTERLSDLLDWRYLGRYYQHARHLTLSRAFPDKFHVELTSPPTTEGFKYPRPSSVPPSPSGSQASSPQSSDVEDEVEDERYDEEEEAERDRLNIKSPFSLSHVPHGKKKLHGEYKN
Sequence of hGYS2 enzyme (recombinant hGYS2/GN1 protein) (P46976 whole entry partner): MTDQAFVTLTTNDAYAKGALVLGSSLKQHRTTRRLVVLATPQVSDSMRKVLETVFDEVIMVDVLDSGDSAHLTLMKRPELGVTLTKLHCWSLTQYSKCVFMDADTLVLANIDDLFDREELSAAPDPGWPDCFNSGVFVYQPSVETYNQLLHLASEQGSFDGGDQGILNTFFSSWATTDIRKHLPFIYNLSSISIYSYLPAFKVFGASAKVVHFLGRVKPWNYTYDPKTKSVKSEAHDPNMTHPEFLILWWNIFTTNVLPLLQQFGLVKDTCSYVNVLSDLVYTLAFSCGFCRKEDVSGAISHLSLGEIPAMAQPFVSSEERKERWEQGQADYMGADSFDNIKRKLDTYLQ
Sequence of hGYS1 enzyme (recombinant hGYS1/GN1 protein) (P13807 whole entry): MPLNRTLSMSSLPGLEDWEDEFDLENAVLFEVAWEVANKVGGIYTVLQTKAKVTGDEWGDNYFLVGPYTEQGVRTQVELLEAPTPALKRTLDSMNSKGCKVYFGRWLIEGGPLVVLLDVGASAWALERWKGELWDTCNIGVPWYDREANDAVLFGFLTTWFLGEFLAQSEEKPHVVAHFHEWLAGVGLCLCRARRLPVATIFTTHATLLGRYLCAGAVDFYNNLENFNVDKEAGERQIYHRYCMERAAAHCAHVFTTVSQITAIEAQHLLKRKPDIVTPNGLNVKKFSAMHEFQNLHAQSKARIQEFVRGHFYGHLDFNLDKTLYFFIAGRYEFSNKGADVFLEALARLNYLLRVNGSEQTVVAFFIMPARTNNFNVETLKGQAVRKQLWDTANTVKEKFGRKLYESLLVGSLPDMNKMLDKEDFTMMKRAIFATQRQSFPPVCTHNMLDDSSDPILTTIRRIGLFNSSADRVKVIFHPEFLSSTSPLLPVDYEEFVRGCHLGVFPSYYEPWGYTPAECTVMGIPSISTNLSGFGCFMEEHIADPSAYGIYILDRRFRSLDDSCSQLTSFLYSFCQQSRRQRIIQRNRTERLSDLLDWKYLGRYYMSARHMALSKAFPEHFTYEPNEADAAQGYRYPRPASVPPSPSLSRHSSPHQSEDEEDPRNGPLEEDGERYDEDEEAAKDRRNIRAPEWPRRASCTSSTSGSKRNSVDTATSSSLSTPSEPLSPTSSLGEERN
Sequence of hGYS1 enzyme (recombinant hGYS1/GN1 protein) (P46976 whole entry partner): as the sequence (P46976 whole entry partner) above

| IC50 [1] [nM] | IC50 [2] [nM] | Structure (SMILES) |
| --- | --- | --- |
| 282 | > 100000 | CC(C)c1ccc([C@@H](NC(=O)[C@@H]2CCCN2C(=O)CCC(N)=O)c2ccccc2)cc1 [Compound 213, (2S)-1-(3-carbamoylpropanoyl)-N-[(S)-phenyl[4-(propan-2-yl)phenyl]methyl]pyrrolidine-2-carboxamide] |
| 7 | > 100000 | CC(C)c1ccc([C@@H](NC(=O)[C@@H]2C[C@@H](F)CN2C(=O)Cc2cccc3ncccc23)c2ccccc2)cc1 [Compound 130, (2S,4R)-4-fluoro-N-[(S)-phenyl[4-(propan-2-yl)phenyl]methyl]-1-[2-(quinolin-5-yl)acetyl]pyrrolidine-2-carboxamide] |
| 247 | > 100000 | CC(C)c1ccc([C@@H](NC(=O)[C@@H]2CCCN2C(=O)Cc2ncco2)c2ccccc2)cc1 [Compound 216, (2S)-1-[2-(1,3-oxazol-2-yl)acetyl]-N-[(S)-phenyl[4-(propan-2-yl)phenyl]methyl]pyrrolidine-2-carboxamide] |
| 97 | > 100000 | CC(=O)N1CCC[C@@H](CC(=O)N2C[C@H](F)C[C@H]2C(=O)N[C@@H](c2ccccc2)c2ccc(C(C)C)cc2)C1 [Compound 171, (2S,4R)-1-{2-[(3S)-1-acetylpiperidin-3-yl]acetyl}-4-fluoro-N-[(S)-phenyl[4-(propan-2-yl)phenyl]methyl]pyrrolidine-2-carboxamide] |
| 252 | > 100000 | CC(C)c1ccc([C@@H](NC(=O)[C@@H]2C[C@@H](F)CN2C(=O)C(C)(C)c2ncn[nH]2)c2ccccc2)cc1 [Compound 233, (2S,4R)-4-fluoro-1-[2-methyl-2-(1H-1,2,4-triazol-5-yl)propanoyl]-N-[(S)-phenyl[4-(propan-2-yl)phenyl]methyl]pyrrolidine-2-carboxamide] |
| 56 | > 100000 | CC(C)c1ccc([C@@H](NC(=O)[C@@H]2C[C@@H](F)CN2C(=O)Cn2ccc3c(F)cccc32)c2ccccc2)cc1 [Compound 128, (2S,4R)-4-fluoro-1-[2-(4-fluoro-1H-indol-1-yl)acetyl]-N-[(S)-phenyl[4-(propan-2-yl)phenyl]methyl]pyrrolidine-2-carboxamide] |
| 217 | > 100000 | CC(C)c1ccc([C@@H](NC(=O)[C@@H]2C[C@@H](F)CN2C(=O)CS(=O)(=O)N2CCCC2)c2ccccc2)cc1 [Compound 129, (2S,4R)-4-fluoro-N-[(S)-phenyl[4-(propan-2-yl)phenyl]methyl]-1-[2-(pyrrolidine-1-sulfonyl)acety]pyrrolidine-2-carboxamide] |
| 131 | > 100000 | CC(=O)NCCCC(=O)N1C[C@H](F)C[C@H]1C(=O)N[C@@H](c1ccccc1)c1ccc(C(C)C)cc1 [Compound 191, (2S,4R)-1-(4-acetamidobutanoyl)-4-fluoro-N-[(S)-phenyl[4-(propan-2-yl)phenyl]methyl]pyrrolidine-2-carboxamide] |
| 5 | > 100000 | Cc1cn(CC(=O)N2C[C@H](F)C[C@H]2C(=O)N[C@@H](c2ccccc2)c2ccc(C(C)C)c(F)n2)c(=O)n(C)c1=O [Compound 386, (2S,4R)-1-[2-(3,5-dimethyl-2,4-dioxo-1,2,3,4-tetrahydropyrimidin-1-yl)acetyl]-4-fluoro-N-[(S)-[6-fluoro-5-(propan-2-yl)pyridin-2-yl](phenyl)methyl] pyrrolidine-2-carboxamide] |
| 3530 | > 100000 | CC(=O)N1C[C@@H](O)C[C@H]1C(=O)N[C@@H](c1ccccc1)c1ccc(C(C)C)cc1 [Compound 204, (2S,4S)-1-acetyl-4-hydroxy-N-[(S)-phenyl[4-(propan-2-yl)phenyl]methyl]pyrrolidine-2-carboxamide] |
| 91 | > 100000 | CC(=O)N1CCCC(C(=O)N2C[C@H](F)C[C@H]2C(=O)N[C@@H](c2ccccc2)c2ccc(C(C)C)cc2)CC1 (stereo partly drawn) [Compound 169, (2S,4R)-1-(1-acetylazepane-4-carbonyl)-4-fluoro-N-[(S)-phenyl[4-(propan-2-yl)phenyl]methyl]pyrrolidine-2-carboxamide] |
| 46 | > 100000 | CC(C)c1ccc([C@@H](NC(=O)[C@@H]2C[C@@H](F)CN2C(=O)Cc2nnc(CN)o2)c2ccccc2)cc1 [Compound 238, (2S,4R)-1-{2-[5-(aminomethyl)-1,3,4-oxadiazol-2-yl]acetyl}-4-fluoro-N-[(S)-phenyl[4-(propan-2-yl)phenyl]methyl]pyrrolidine-2-carboxamide] |
| 10 | > 100000 | COc1ccc(CC(=O)N2C[C@H](F)C[C@H]2C(=O)N[C@@H](c2ccccc2)c2ccc(C(C)C)cc2)c(C#N)c1 [Compound 133, (2S,4R)-1-[2-(2-cyano-4-methoxyphenyl)acetyl]-4-fluoro-N-[(S)-phenyl[4-(propan-2-yl)phenyl]methyl]pyrrolidine-2-carboxamide] |
| 173 | > 100000 | O=C(N[C@@H](c1ccccc1)c1ccc(C2CC2)c(F)c1)[C@@H]1C[C@@H](F)CN1C(=O)Cc1ccn[nH]1 [Compound 436, (2S,4R)-N-[(S)-(4-cyclopropyl-3-fluorophenyl)(phenyl)methyl]-4-fluoro-1-[2-(1H-pyrazol-5-yl)acetyl]pyrrolidine-2-carboxamide] |
| 285 | > 100000 | CC(=O)N1CC(C)(CC(=O)N2C[C@H](F)C[C@H]2C(=O)N[C@@H](c2ccccc2)c2ccc(C(C)C)cc2)C1 [Compound 154, (2S,4R)-1-[2-(1-acetyl-3-methylazetidin-3-yl)acetyl]-4-fluoro-N-[(S)-phenyl[4-(propan-2-yl)phenyl]methyl]pyrrolidine-2-carboxamide] |
| 13 | > 100000 | CC(C)c1ccc([C@@H](NC(=O)[C@@H]2C[C@@H](F)CN2C(=O)Cc2cnccn2)c2ccccc2)cc1F [Compound 344] |
| 5 | > 100000 | Cc1cn(CC(=O)N2C[C@H](F)C[C@H]2C(=O)N[C@@H](c2ccccc2)c2ccc(C(C)C)c(F)n2)c(=O)[nH]c1=O [Compound 388, (2S,4R)-4-fluoro-N-[(S)-[6-fluoro-5-(propan-2-yl)pyridin-2-yl](phenyl)methyl]-1-[2-(5-methyl-2,4-dioxo-1,2,3,4-tetrahydropyrimidin-1-yl)acetyl]pyrrolidine-2-carboxamide] |
| 41 | > 100000 | Cc1cnn(CC(=O)N2C[C@H](F)C[C@H]2C(=O)N[C@@H](c2ccccc2)c2ccc(C(C)C)cc2)c1 [Compound 56, (2S,4R)-4-fluoro-1-[2-(4-methyl-1H-pyrazol-1-yl)acetyl]-N-[(S)-phenyl[4-(propan-2-yl)phenyl]methyl]pyrrolidine-2-carboxamide] |
| 73 | > 100000 | CC(C)c1ccc([C@@H](NC(=O)[C@@H]2C[C@@H](F)CN2C(=O)Cc2ccc(F)cn2)c2ccccc2)cc1 [Compound 36, (2S,4R)-4-fluoro-1-[2-(5-fluoropyridin-2-yl)acetyl]-N-[(S)-phenyl[4-(propan-2-yl)phenyl]methyl]pyrrolidine-2-carboxamide] |
| 26 | > 100000 | CC(C)c1ccc([C@@H](NC(=O)[C@@H]2C[C@@H](F)CN2C(=O)C(O)C(C)C)c2ccccc2)cc1 (stereo partly drawn) [Compound 185, (2S,4R)-4-fluoro-1-(2-hydroxy-3-methylbutanoyl)-N-[(S)-phenyl[4-(propan-2-yl)phenyl]methyl]pyrrolidine-2-carboxamide] |
